Reference: BindingDB's records for doi:10.1016/s0960-894x(98)00716-1 (Novartis Biomedical Research Institute, 1999)

Target: Stromelysin-1 (MMP-3)
Experiment: In vitro inhibitory activity against matrix metalloprotease-3

Row | Compound | IC50 [nM]
1 | CCC[C@H]1CC[C@@](CS)(C(=O)N[C@@H](Cc2ccccc2)C(=O)NC)CC1 [1-Mercaptomethyl-4-propyl-cyclohexanecarboxylic acid ((S)-1-methylcarbamoyl-2-phenyl-ethyl)-amide] | > 10000
2 | CNC(=O)[C@H](Cc1ccccc1)NC(=O)C1(CS)CCCCC1 [1-Mercaptomethyl-cyclohexanecarboxylic acid ((S)-1-methylcarbamoyl-2-phenyl-ethyl)-amide] | 9200
3 | CCO[C@H]1CC[C@@](CS)(C(=O)N[C@@H](Cc2ccccc2)C(=O)NCc2ccccc2)CC1 [4-Ethoxy-1-mercaptomethyl-cyclohexanecarboxylic acid ((S)-1-benzylcarbamoyl-2-phenyl-ethyl)-amide] | 207
4 | CCO[C@H]1CC[C@@](CS)(C(=O)N[C@@H](Cc2ccccc2)C(=O)NC2CCCCC2)CC1 [4-Ethoxy-1-mercaptomethyl-cyclohexanecarboxylic acid ((S)-1-cyclohexylcarbamoyl-2-phenyl-ethyl)-amide] | 617
5 | CCO[C@H]1CC[C@@](CS)(C(=O)N[C@@H](Cc2ccccc2)C(=O)NC2CCCC2)CC1 [4-Ethoxy-1-mercaptomethyl-cyclohexanecarboxylic acid ((S)-1-cyclopentylcarbamoyl-2-phenyl-ethyl)-amide] | 666
6 | CCO[C@H]1CC[C@@](CS)(C(=O)N[C@@H](Cc2ccccc2)C(=O)NC)CC1 [4-Ethoxy-1-mercaptomethyl-cyclohexanecarboxylic acid ((S)-1-methylcarbamoyl-2-phenyl-ethyl)-amide] | 640
7 | CCO[C@H]1CC[C@@](CS)(C(=O)N[C@@H](Cc2ccccc2)C(=O)Nc2ccc(Cl)cc2)CC1 [4-Ethoxy-1-mercaptomethyl-cyclohexanecarboxylic acid [(S)-1-(4-chloro-phenylcarbamoyl)-2-phenyl-ethyl]-amide] | 113
8 | CCO[C@H]1CC[C@@](CS)(C(=O)N[C@@H](Cc2ccccc2)C(=O)Nc2ccc(OC)cc2)CC1 [4-Ethoxy-1-mercaptomethyl-cyclohexanecarboxylic acid [(S)-1-(4-methoxy-phenylcarbamoyl)-2-phenyl-ethyl]-amide] | 39
9 | CCOc1ccc(C[C@H](NC(=O)[C@]2(CS)CC[C@H](OCC)CC2)C(=O)Nc2ccccc2)cc1 [4-Ethoxy-1-mercaptomethyl-cyclohexanecarboxylic acid [(S)-2-(4-ethoxy-phenyl)-1-phenylcarbamoyl-ethyl]-amide] | 139
10 | CCO[C@H]1CC[C@@](CS)(C(=O)N[C@@H](Cc2ccc(F)cc2)C(=O)Nc2ccccc2)CC1 [4-Ethoxy-1-mercaptomethyl-cyclohexanecarboxylic acid [(S)-2-(4-fluoro-phenyl)-1-phenylcarbamoyl-ethyl]-amide] | 134
11 | CCO[C@H]1CC[C@@](CS)(C(=O)N[C@@H](Cc2ccc(OC)cc2)C(=O)Nc2ccccc2)CC1 [4-Ethoxy-1-mercaptomethyl-cyclohexanecarboxylic acid [(S)-2-(4-methoxy-phenyl)-1-phenylcarbamoyl-ethyl]-amide] | 62
12 | CCO[C@H]1CC[C@@](CS)(C(=O)N[C@@H](Cc2ccccc2)C(=O)Nc2ccc(OC(F)(F)F)cc2)CC1 [4-Ethoxy-1-mercaptomethyl-cyclohexanecarboxylic acid [(S)-2-phenyl-1-(4-trifluoromethoxy-phenylcarbamoyl)-ethyl]-amide] | 175
13 | CCO[C@H]1CC[C@@](CS)(C(=O)N[C@@H](Cc2ccccc2)C(=O)Nc2ccccn2)CC1 [4-Ethoxy-1-mercaptomethyl-cyclohexanecarboxylic acid [(S)-2-phenyl-1-(pyridin-2-ylcarbamoyl)-ethyl]-amide] | 449
14 | CNC(=O)[C@H](Cc1ccccc1)NC(=O)[C@]1(CS)CC[C@H](C(C)(C)C)CC1 [4-tert-Butyl-1-mercaptomethyl-cyclohexanecarboxylic acid ((S)-1-methylcarbamoyl-2-phenyl-ethyl)-amide] | > 10000
15 | CNC(=O)[C@H](Cc1ccccc1)NC(=O)[C@@]1(CS)CCCC(OC)C1 (stereo partly drawn) [(R)-1-Mercaptomethyl-3-methoxy-cyclohexanecarboxylic acid ((S)-1-methylcarbamoyl-2-phenyl-ethyl)-amide] | > 10000
